Reference: patent US20120010161A1, “NOVEL AZAPEPTIDE OR AZAPEPTIDOMIMETIC COMPOUNDS INHIBITING BCRP AND/OR P-GP” (CENTRE NATIONAL DE LA RECHERCHE SCIENTIFIQUE, priority 2009, published 2012)

Legend:
HEK-293 cells = experiment: Cytotoxicity on cell growth, MTT test; format: cell-based, human; settings: 72 hours; for harmlessness / toxicity on HEK-293 cells: cells expressing or not ABCG2
Experimental: The cells are seeded (10 000 cells/well) in 96-well plates and incubated for 24 hours at 37° C. under 5% CO2. Varied concentrations of mitoxantrone (from 0 to 20 μM in a constant final volume of 100 μL) are then added with an equal volume of each of the test compounds. The cells are then left to divide for 72 hours. The cytotoxicity is evaluated colorimetrically with 3-(4,5-dimethylthiazol-2-yl)-2,5-diphenyltetrazolium bromide (MTT).
Increasing concentrations of compound (IA.2) are applied to HEK-293 cells expressing or not expressing ABCG2, and whose residual vitality is evaluated after 72 hours of treatment by an MTT test. The results are illustrated in FIG. 4, in which the cells expressing ABCG2 are represented by empty circles, and those not expressing it by solid circles. […] This absence of toxicity is observed even at a very high concentration such as 40 μM, which corresponds to 40 times the IC50 value.
(§1) Increasing concentrations of compound (IA.1) are applied to HEK-293 cells expressing or not expressing ABCG2, and whose residual vitality is evaluated after 72 hours of treatment by an MTT test. The results are illustrated in FIG. 6, in which the cells expressing ABCG2 are represented by empty circles, and those not expressing it by solid circles.
as §1, with “(IB.1)” for “(IA.1)”, “8,” for “6,”, “circles” for “circles,”
as §1, with “(IB.11)” for “(IA.1)”, “10,” for “6,”

ABCG2 = molecular target: T1, ABCG2 (Homo sapiens, UniProt Q9UNQ0); experiment: Type of inhibition: mitoxantrone efflux by ABCG2 at varied substrate and inhibitor concentrations (FIG. 2); format: cell-based; set-up: expressed in transfected cells; host or cells: HEK-293 transfected with pcDNA3.1-ABCG2; settings: for type of inhibition of ABCG2: mitoxantrone 0 to 20 μM, inhibitor 0 to 20 μM
T1 sequence (Q9UNQ0 1-655): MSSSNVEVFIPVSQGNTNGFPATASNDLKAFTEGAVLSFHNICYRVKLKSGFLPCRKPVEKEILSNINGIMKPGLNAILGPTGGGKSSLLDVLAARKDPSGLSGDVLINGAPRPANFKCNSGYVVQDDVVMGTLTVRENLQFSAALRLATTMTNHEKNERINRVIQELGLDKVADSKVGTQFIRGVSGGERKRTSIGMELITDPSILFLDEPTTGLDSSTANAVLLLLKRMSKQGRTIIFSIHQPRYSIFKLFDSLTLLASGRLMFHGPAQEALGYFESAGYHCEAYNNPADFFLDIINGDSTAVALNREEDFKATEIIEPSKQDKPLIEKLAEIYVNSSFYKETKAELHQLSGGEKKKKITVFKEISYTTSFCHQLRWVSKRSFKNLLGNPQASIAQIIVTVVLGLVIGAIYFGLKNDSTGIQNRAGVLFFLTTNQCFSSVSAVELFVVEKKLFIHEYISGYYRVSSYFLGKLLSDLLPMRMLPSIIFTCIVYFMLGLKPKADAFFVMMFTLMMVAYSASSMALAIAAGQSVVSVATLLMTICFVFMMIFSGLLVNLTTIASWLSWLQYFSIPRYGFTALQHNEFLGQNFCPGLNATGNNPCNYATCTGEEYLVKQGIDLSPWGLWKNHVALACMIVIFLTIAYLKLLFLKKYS
Experimental: The efflux of mitoxantrone by ABCG2 was measured at substrate concentrations ranging from 0 to 20 μM (panels A-C) in the presence or absence of fixed concentrations of compound (IA.2) in a range from 0 to 20 μM (panels D-E). In FIG. 2, the results obtained by varying the […] concentration are presented as a representation, which is either direct in panel A or of Lineweaver-Burke form in panel B or of Eadie-Hofstee form in panel C. The results obtained by varying the […] concentration are presented in linear (panel D) or logarithmic (panel E) x-axis scale. The curves were adjusted by means of the SigmaPlot software.
This is confirmed by the Lineweaver-Burke and Eadie-Hofstee representations presented, respectively, in FIG. 2B and FIG. 2C. The representations of these two graphs are characteristic of this type of inhibition. The inhibition constant K of compound (IA.2) is estimated as about 1 μM from the adjustment of the points of FIG. 2D or FIG. 2E.

Row | Compound | harmlessness / toxicity on HEK-293 cells (HEK-293 cells) | cytotoxic effect on HEK-293 cells (HEK-293 cells; concentration range tested, more than 10 times its IC50, expressing or not ABCG2) | cytotoxicity on HEK-293 cells (HEK-293 cells; up to 40 μM (40 times the IC50), expressing or not ABCG2) | Ki (ABCG2; ABCG2, mitoxantrone efflux, from adjustment of FIG. 2D or 2E, read-out: inhibition constant K) [nM] | type of inhibition of ABCG2 (ABCG2) | cytotoxicity on HEK-293 cells (HEK-293 cells; at 40 times the IC50) | cytotoxic effect on HEK-293 cells (HEK-293 cells; up to 20 times its IC50, expressing or not ABCG2) | cytotoxic effect on HEK-293 cells (HEK-293 cells; concentration range tested, more than 80 times its IC50, expressing or not ABCG2)
1 | CC(C)(C)OC(=O)NN(C(=O)N[C@@H](CCCCNC(=O)OCc1ccccc1)C(=O)OC(C)(C)C)c1ccccc1C(=O)OCc1ccccc1 [IA.1, tert-Butyl ester of (2S)-6-(benzyloxycarbonylamino)-2-[1-(2′-(benzyloxycarbonyl)phenyl)-2-(tert-butoxycarbonyl)hydrazino-carbonylamino]hexanoic acid] | harmlessness | no cytotoxic effect |  |  |  |  |  | 
2 | CC(C)(C)OC(=O)NN(C(=O)N[C@@H](CCCCNC(=O)OCc1ccccc1)C(=O)OC(C)(C)C)c1cccc(C(=O)OCc2ccccc2)c1 [IA.2, tert-Butyl ester of (2S)-6-(benzyloxycarbonylamino)-2-[1-(3′-(benzyloxycarbonyl)phenyl)-2-(tert-butoxycarbonyl)hydrazino-carbonylamino]hexanoic acid] | harmlessness |  | absolutely not cytotoxic | ~1000 | noncompetitive inhibitor |  |  | 
3 | CC(C)(C)OC(=O)N[C@H](CNN(CCCCCCNC(=O)OCc1ccccc1)C(=O)OC(C)(C)C)CC(=O)OCc1ccccc1 [IB.1, Benzyl ester of (3S)-4-[2-(6-benzyloxycarbonylaminohexyl)-2-tert-butoxycarbonylhydrazino]-3-tert-butoxycarbonylaminobutyric acid] | harmlessness |  |  |  |  | relative cytotoxicity | no cytotoxic effect | 
4 | CC(C)(C)OC(=O)N[C@H](CNN(CCCCCCNC(=O)OCc1ccccc1)C(=O)OCc1ccccc1)CC(=O)OCc1ccccc1 [IB.11, Benzyl ester of (3S)-4-[2-benzyloxycarbonyl-2-(6-benzyloxycarbonylaminohexyl)hydrazino]-3-tert-butoxycarbonyl-aminobutyric acid] | harmlessness |  |  |  | noncompetitive |  |  | no cytotoxic effect
